From patent US5399588A, “Naphthalenylmethyl cycloalkenone acetic acids and analogs thereof useful as aldose reductase inhibitors” (American Home Products Corporation, priority 1993, dated 1995)

Experiments:
[1] = target: T1, bovine lens aldose reductase (Bos taurus, UniProt P16116); experiment: In vitro Inhibition of Aldose Reductase in the Bovine Lens; format: biochemical; conditions: DL-glyceraldehyde as substrate; for inhibition at 0.04 µM: 4 × 10^-8 M; for inhibition at 10 µM: 10^-5 M; for inhibition at 1 µM: 10^-6 M
T1 construct: in the preparation of the enzyme from bovine lens; from tissue; host or cells: bovine lens
Description: II. In vitro Inhibition of Aldose Reductase in the Bovine Lens
The aldose reductase inhibiting effects of the compounds of formula (I) were also tested by employing an in vitro testing procedure similar to that described by S. Hayman and J. H. Kinoshita, J. Biol. Chem., 240, 877 (1965) wherein the ability of the invention compounds to inhibit bovine lens aldose reductase with DL-glyceraldehyde as the substrate was determined. In the present case the procedure of Hayman and Kinoshita was modified in that the final chromatography step was omitted in the preparation of the enzyme from bovine lens.

[2] = tested on: aldose reductase; experiment: In vivo Inhibition of Aldose Reductase in Galactosemic Rats; parameters: species or system male rats, Sprague-Dawley strain; conditions: four days, polyol accumulation
Source text: I. In vivo Inhibition of Aldose Reductase in Galactosemic Rats
The aldose reductase inhibiting property of the compounds of this invention and the utilization of the compounds in preventing, diminishing and alleviating diabetic complications are demonstrable in experiments using galactosemic rats, see Dvornik et al., Science, 182, 1146 (1973).
(a) Four or more groups of six male rats, 50-70 g, Sprague-Dawley strain, were used. The first group, the control group, was fed a mixture of laboratory chow (rodent Laboratory Chow, Purina) and glucose at 20% (w/w %) concentration. An untreated galactosemic group was fed a similar diet in which galactose was substituted for glucose. The third group was fed a diet prepared by mixing a given amount of the test compound with the galactose containing diet. The concentration of galactose in the diet of the treated groups was the same as that for the untreated galactosemic group.
(b) After four days, the animals were killed by euthanization. Both the lens and sciatic nerve were removed, weighed and stored frozen for polyol determination.
(c) The polyol determination was performed by a modification of the procedure of M. Kraml and L. Cosyns, Clin. Biochem., 2, 373 (1969). Only two minor reagent changes were made: (a) the rinsing mixture was an aqueous 5% (w/v) trichloroacetic acid solution and (b) the stock solution was prepared by dissolving 25 mg of dulcitol in 100 mL of an aqueous trichloroacetic acid solution. [N.B.: For each experiment the average value found in the tissue from rats fed the glucose diet was subtracted from the individual values found in the corresponding tissue in galactose-fed rats to obtain the amount of polyol accumulated].

[3] = 100 mg/kg/day in galactose-containing diet

Work on O=C(O)COC1=C(Cc2ccc3c(Cl)cccc3c2)C(=O)CC1 [Example 11, [[2-(5-chloro-naphthalen-2-ylmethyl)-3-oxo-cyclopent-1-enyl]oxy]-acetic acid] yielded an inhibition at 0.04 µM [1] of 70%.
For O=C(O)COC1=C(Cc2ccc3c(Cl)cccc3c2)C(=O)CCC1 [Example 8, [[2-(5-chloro-naphthalen-2-ylmethyl)-3-oxo-1-cyclohex-1-enyl]oxy]acetic acid], the inhibition at 0.04 µM [1] was 81%.
In the case of O=C(O)CC1=C(Cc2ccc3c(Cl)cccc3c2)C(=O)CCC1 [Example 3, [2-(5-chloro-naphthalen-2-ylmethyl)-3-oxo-cyclohex-1-enyl]-acetic acid], the inhibition at 0.04 µM [1] was 79%, the “% Inhibition of aldose reductase” value ([2]; 105 mg/kg/day in galactose-containing diet) was 52% and the “% Inhibition of aldose reductase” value ([2]; 202 mg/kg/day in galactose-containing diet) was 73%.
In the case of COc1ccc2c(CC3=C(CC(=O)O)CCC3=O)cccc2c1C(F)(F)F [Example 14, [2-(6-Methoxy-5-trifluoromethyl-naphthalen-1-ylmethyl)-3-oxo-cyclopent-1-enyl]-acetic acid], the inhibition at 10 µM [1] was 84%.
COc1ccc2c(CC3=C(CC(=O)O)CCCC3=O)cccc2c1C(F)(F)F [Example 13, [2-(6-methoxy-5-trifluoromethyl-naphthalen-1-ylmethyl)-3-oxo-cyclohex-1-enyl]-acetic acid] gave an inhibition at 10 µM [1] of 51%.
O=C(O)CC1=C(Cc2ccc3c(Br)cccc3c2)C(=O)CCC1 [Example 1, [2-(5-Bromo-naphthalen-2-ylmethyl)-3-oxo-cyclohex-1-enyl]-acetic acid] was tested, and the inhibition at 0.04 µM [1] was 78% and the “% Inhibition of aldose reductase” value [2, 3] was 68%.
O=C(O)CC1=C(Cc2ccc3c(Cl)cccc3c2)C(=O)CC1 [Example 4, [2-(5-chloro-naphthalen-2-ylmethyl)-3-oxo-cyclopen-1-enyl]-acetic acid] was tested, and the inhibition at 0.04 µM [1] was 62% and the “% Inhibition of aldose reductase” value [2, 3] was 37%.
In the case of COc1ccc2cc(CC3=C(CC(=O)O)CCCC3=O)ccc2c1Br [Example 2, [2-(5-bromo-6-methoxy-naphthalen-2-ylmethyl)-3-oxocyclohex-1-enyl] acetic acid], the inhibition at 0.1 µM ([1]; 10^-7 M) was 50% and the “% Inhibition of aldose reductase” value [2, 3] was 71%.
O=C(O)COC1=C(Cc2ccc3ccccc3c2)C(=O)CCC1 [Example 9, [[2-(naphthalen-2-ylmethyl)-3-oxo-1-cyclohex-1-enyl]oxy]acetic acid] was tested, and the inhibition at 1 µM [1] was 87%.
With O=C(O)COC1=C(Cc2ccc3c(Br)cccc3c2)C(=O)CCC1 [Example 10, [[2-(5-bromo-naphthalen-2-ylmethyl)-3-oxo-cyclohex-1-enyl]oxy]-acetic acid] the inhibition at 0.04 µM [1] was 86%.
Compound O=C(O)COC1=C(Cc2ccc3ccccc3c2)C(=O)CC1 [Example 12, [[2-(2-Naphthalen-2-ylmethyl)-3-oxo-cyclopent-1-enyl]oxy]-acetic acid] has an inhibition at 1 µM [1] of 61%.
Work on O=C(O)CC1=C(Cc2ccc3ccccc3c2)C(=O)CCC1 [Example 7, [2-(naphthalen-2-ylmethyl)-3-oxo-cyclohex-1-enyl]-acetic acid] yielded an inhibition at 1 µM [1] of 41%.
For COC(=O)NC(=O)CC1=C(Cc2ccc3c(Br)cccc3c2)C(=O)CCC1 [Example 5, [[2-(5-bromo-naphthalen-2-ylmethyl)-3-oxo-cyclohex-1-enyl]acetyl]carbamic acid methyl ester], the inhibition at 10 µM [1] was 27% and the “% Inhibition of aldose reductase” value [2, 3] was 45%.
Work on COC(=O)NC(=O)CC1=C(Cc2ccc3c(Cl)cccc3c2)C(=O)CC1 [Example 6, [2-[2-(5-chloro-naphthalen-2-ylmethyl)-3-oxo-cyclopent-1-enyl]-acetyl]carbamic acid methyl ester] yielded an inhibition at 10 µM [1] of 19%.
